Data set [1] concerns H. pylori reference strain J99. The data set can be described thus: MIC and MBC by microdilution against H. pylori reference strain J99. It is filed as cell-based, Helicobacter pylori. The conditions noted are these: for MBC: (-) = MBC not determined, as bacterial growth was observed at all tested concentrations (up to 20 µM). The procedure: To evaluate the activity of the natural products library, in vitro assays were conducted to determine the MIC and MBC against the H. pylori reference strain J99. […] The microplates were then incubated at 37 °C in microaerophilic conditions for 48 h with agitation of 140 rpm. After incubation, the optical density was read at 600 nm (BioTek Epoch2, Agilent, Winooski, VT, USA). All assays were performed in duplicate. DMSO at a concentration of 1% (v/v) was included as a negative control to assess the baseline effect of the solvent, in which bacterial growth was expected, while kanamycin (Sigma-Aldrich, St. Louis, MO, USA) at a concentration of 8 µg/mL was used as a positive control to provide a benchmark for effective antibacterial activity. MIC values were defined as the lowest concentration of a compound that inhibited the growth of H. pylori. MBC values were determined by plating 5 µL aliquots of each dilution onto H. pylori-selective medium, followed by incubation as described above. MBC was defined as the lowest concentration of a compound that rendered no visible colony formation on the solid medium, indicating bactericidal activity.

The nature of data set [2]: MTT cytotoxicity assay on VERO cells. The settings on record: African green monkey, MTT, 80 to 10 µM. It is filed as cell-based. The procedure:
(§1) The cytotoxicity of the compounds showing antibacterial activity was evaluated in VERO cell cultures (FTVE, Vircell, S.L., Granada, Spain) using the standard MTT colorimetric assay. Briefly, sub confluent cell cultures were exposed for 48 h, to 2-fold dilutions of each assayed compound, ranging from 80 to 10 µM, in 100 μL CO2-independent medium supplemented with 5% FBS and […] gentamicin (Gibco^TM, Grand Island, NY, USA) (CO2-ind-FBS5). In each assay, cells exposed to equivalent concentrations of DMSO as solvent and untreated cells were kept as controls; untreated cells were considered the baseline for 100% viability.
(§2) After 48-h incubation at 37 °C, the culture medium was replaced by fresh CO2-ind-FBS5 medium supplemented with 0.5 mg/mL MTT (Thermo Fisher Scientific, Waltham, MA, USA). Upon a 3-h incubation at 37 °C, the medium was carefully discarded, and the purple formazan crystals formed were dissolved in DMSO (100 μL/well) during a 15-min incubation with agitation at room temperature, followed by absorbance reading at 570 nm, with reference wavelength at 630 nm (BioTek Epoch2, Agilent, Winooski, VT, USA). Data analysis and visualization were performed using Excel (v.2408) and RStudio (v. 2024.04.2). When possible, the half maximal cytotoxic concentration (CC50) values were determined for each compound by fitting a dose–response three- or four-parameter log-logistic function to the triplicate experimental points using RStudio (v.2024.04.2).
(§3) The selectivity index (SI) is the ratio of the cytotoxic concentration for 50% of the cells (CC50) to the inhibitory concentration for 50% of the bacteria (IC50). Considering that IC50 values were not calculated, but are expectably lower than the MIC value, the SI was estimated by dividing the CC50 by the MIC. Therefore, this value is necessarily lower than the SI because the MIC, rather than the bacterial half-maximal inhibitory concentration (IC50), was used in the calculation. This approach allows for an estimation of the therapeutic potential of the compound by providing an indication of its selectivity for targeting bacterial cells over host cells, even though the MIC is used instead of the bacterial IC50.
(§4) To compare biofilm formation between groups (negative control, H. pylori J99, and compound treatments), one-way analysis of variance (ANOVA) was performed, followed by Tukey’s post-hoc test for multiple comparisons. Data analysis was conducted using Python 3.13.5. Similarly, for the cytotoxicity assay in VERO cells, ANOVA and Tukey’s post-hoc test were also used to compare groups at each tested concentration (ranging from 80 to 10 µM), with DMSO-treated and untreated cells as reference groups.
On the technique in general: Formazan colour is commonly taken as a measure of viable cells.

Data set [3] concerns VERO cells. The data set can be described thus: MTT cytotoxicity assay on VERO cells. The conditions noted are these: 48 h, 10 to 80 µM, versus DMSO and untreated controls. It is filed as cell-based. The procedure:
as §1, §2, §3, §4

[4] abbreviates: Helicobacter pylori, H. pylori J99, 48 h, 2-fold dilutions 20 to 0.625 µM.
The mark [5] stands for this setting: Helicobacter pylori, H. pylori J99, after conversion from µM to µg/mL.
Setting [6] is: Helicobacter pylori, H. pylori J99, read-out: MBC.

≈ marks a conversion by molar mass, not a printed value. Entries after “also recorded” stand apart in the source; their conditions may differ. Read-outs that look alike come from different tables or passages of the source.

This is an account of results in publication PMC12386351, “Monoterpene Indole Alkaloids with Antimicrobial Activity Against Helicobacter pylori” (International Journal of Molecular Sciences, 2025).

A word on the MIC: it is the lowest concentration that inhibits growth of the organism. Lower therefore signals a more susceptible organism. As a reminder, the CC50 is the concentration giving 50% cytotoxicity.

`CCC1CN(C)C2Cc3c([nH]c4ccccc34)C(=NN=Cc3c[nH]c4ccccc34)CC1C2C(=O)OC` (centres unmarked) [Compound 4, Dregamine(indolylmethylene)hydrazone]: the values for the MIC in data set [1] (setting [4]) and in data set [1] (setting [5]) were 10 µM and 4.96 µg/mL, respectively. The compound also came in with a CC50 at 48 h in data set [2] of 47 ± 2.2 µM.
In the case of `CCC1CN(C)C2Cc3c([nH]c4ccccc34)C(c3c(OC)ccc4c5c([nH]c34)C3(C(=O)OC)CC4CC(CC)C3N(CC5)C4CC(C)=O)CC1C2C(=O)OC` (centres unmarked) [Compound 7, Tabernaelegantinine A], the figures for the MIC in data set [1] (setting [4]) and in data set [1] (setting [5]) were 20 µM and 15.2 µg/mL, respectively. For the same compound, in data set [2], the CC50 at 48 h was > 80 µM. Also, in data set [3], the “Effect on cell viability (MTT)” value is listed as “only a slight decrease in cell viability; also recorded: significant effects only at 80 µM”.
Regarding `CCC1CN(C)C2Cc3c([nH]c4ccccc34)C(=NN=Cc3ccccc3O)CC1C2C(=O)OC` (centres unmarked) [Compound 5, Dregamine(2′-hydroxybenzylidene)hydrazone], the minimal inhibitory concentration (MIC) was 20 µM in data set [1] (setting [4]) and 9.45 µg/mL in data set [1] (setting [5]). Besides, the CC50 at 48 h in data set [2] came to 55.8 ± 4.5 µM.
For the compound `CCC1CN(C)C2Cc3c([nH]c4ccccc34)C(=NN=CC=Cc3ccccc3)CC1C2C(=O)OC` (centres unmarked) [Compound 3, Dregamine(phenylallylidene)hydrazone], the MBC in data set [1] (H. pylori J99) was 20 (20) µM; in data set [1] (setting [6]), 20 µM (≈ 9.65 µg/mL). The results for the MIC in data set [1] (setting [4]) and in data set [1] (setting [5]) were 20 µM and 9.65 µg/mL, respectively. This compound came in with a CC50 at 48 h in data set [2] of 44.1 ± 2.4 µM.
On to `CCC1CN(C)C2Cc3c([nH]c4ccccc34)C(=NN=Cc3c[nH]c4cc(Br)ccc34)CC1C2C(=O)OC` (centres unmarked) [Compound 6, Dregamine(6′bromo-3′indolylmethylene)hydrazone], for which the MIC in data set [1] (setting [4]) was determined as 10 µM; in data set [1] (setting [5]), 5.75 µg/mL. Moreover, the MBC in data set [1] (setting [6]) is 20 µM (≈ 11.5 µg/mL). Moreover, in data set [2], the CC50 at 48 h is > 80 µM. In addition, the “Effect on cell viability (MTT)” value in data set [3] was “only a slight decrease in cell viability; also recorded: did not induce significant cytotoxicity at any tested concentration”.
